Test results taken from patent publication US20080221083A1, “Heterobicyclic metalloprotease inhibitors” (priority 2006, published 2008).

Key:
[1] = molecular target: T1, catalytic domain of MMP-3 enzyme (Homo sapiens, UniProt P08254); assay: Assay for determining MMP-3 inhibition; format: biochemical; conditions: fluorescent substrate NFF-3, pH 6.0; read-out: Summary of MMP-3 Activity for Compounds (IC50 MMP-3), Group
T1 construct: the catalytic domain of MMP-3 enzyme (Biomol, Cat. No. SE-109); purchased Biomol SE-109
Description: Assay for Determining MMP-3 Inhibition
The typical assay for MMP-3 activity is carried out in assay buffer comprised of 50 mM MES, pH 6.0, 10 mM CaCl2 and 0.05% Brij-35. Different concentrations of tested compounds are prepared in assay buffer in 50 μl aliquots. 10 μl of a 100 nM stock solution of the catalytic domain of MMP-3 enzyme (Biomol, Cat. No. SE-109) is added to the compound solution. The mixture of enzyme and compound in assay buffer is thoroughly mixed and incubated for 10 min at room temperature. Upon the completion of incubation, the assay is started by addition of 40 μl of a 12.5 μM stock solution of NFF-3 fluorescent substrate (Calbiochem, Cat. No. 480455). The time-dependent increase in fluorescence is measured at the 330 nm excitation and 390 nm emission by an automatic plate multireader. The IC50 values are calculated from the initial reaction rates.

[2] = molecular target: T2, catalytic domain of MMP-13 enzyme (Homo sapiens, UniProt P45452); assay: Assay for determining MMP-13 inhibition; format: biochemical; conditions: MMP-13 fluorescent substrate, pH 7.5; read-out: Summary of MMP-13 Activity for Compounds (IC50 MMP-13), Group
T2 construct: catalytic domain of MMP-13 enzyme (produced by Alantos or commercially available from Invitek (Berlin), Cat. No. 30100812); purchased Invitek (Berlin) 30100812
Description: Assay for Determining MMP-13 Inhibition
The typical assay for MMP-13 activity is carried out in assay buffer comprised of 50 mM Tris, pH 7.5, 150 mM NaCl, 5 mM CaCl2 and 0.05% Brij-35. Different concentrations of tested compounds are prepared in assay buffer in 50 μl aliquots. 10 μl of a 50 nM stock solution of catalytic domain of MMP-13 enzyme (produced by Alantos or commercially available from Invitek (Berlin), Cat. No. 30100812) is added to the compound solution. The mixture of enzyme and compound in assay buffer is thoroughly mixed and incubated for 10 min at room temperature. Upon the completion of incubation, the assay is started by addition of 40 μl of a 12.5 μM stock solution of MMP-13 fluorescent substrate (Calbiochem, Cat. No. 444235). The time-dependent increase in fluorescence is measured at the 320 nm excitation and 390 nm emission by automatic plate multireader. The IC50 values are calculated from the initial reaction rates.

T1 sequence (P08254 100-272 limits assumed): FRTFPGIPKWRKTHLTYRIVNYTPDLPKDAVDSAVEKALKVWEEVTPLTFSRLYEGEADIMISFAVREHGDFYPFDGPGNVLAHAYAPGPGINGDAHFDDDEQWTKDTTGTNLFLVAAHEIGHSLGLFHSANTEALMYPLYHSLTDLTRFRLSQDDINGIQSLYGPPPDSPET

| Compound | IC50 [1] [nM] | IC50 [2] [nM] |
| --- | --- | --- |
| O=C(NCc1ccccc1)c1c[nH]c2c(C(=O)NCc3ccc(F)cc3)ncnc12 [Example 6] | 3 to 100 | 101 to 20000 |
| CCC(CC)NC(=O)c1c[nH]c2c(C(=O)NCc3ccc4c(c3)NC(=O)CO4)ncnc12 [Example 31] | 101 to 20000 | 101 to 20000 |
| CC(C)NC(=O)c1c[nH]c2c(C(=O)NCc3ccc4c(c3)NC(=O)CO4)ncnc12 [Example 32] | 101 to 20000 | – |
| O=C1COc2ccc(CNC(=O)c3ncnc4c(C(=O)NC5CCCC5)c[nH]c34)cc2N1 [Example 33] | 3 to 100 | – |
| O=C1COc2ccc(CNC(=O)c3ncnc4c(C(=O)NCc5ccccc5)c[nH]c34)cc2N1 [Example 34] | 3 to 100 | 101 to 20000 |
| O=C1COc2ccc(CNC(=O)c3ncnc4c(C(=O)NCC5CCCCC5)c[nH]c34)cc2N1 [Example 35] | 3 to 100 | 101 to 20000 |
| O=C1COc2ccc(CNC(=O)c3ncnc4c(C(=O)NCC5(O)CCCCC5)c[nH]c34)cc2N1 [Example 40] | 101 to 20000 | 101 to 20000 |
| CNC(=O)c1c[nH]c2c(C(=O)NCc3ccc4c(c3)NC(=O)CO4)ncnc12 [Example 41] | 101 to 20000 | – |
| O=C1COc2ccc(CNC(=O)c3ncnc4c(C(=O)N5CCC(O)CC5)c[nH]c34)cc2N1 [Example 42] | 101 to 20000 | – |
| COc1cccc(CNC(=O)c2c[nH]c3c(C(=O)NCc4ccc5c(c4)NC(=O)CO5)ncnc23)c1 [Example 45] | 101 to 20000 | 101 to 20000 |
| CN(Cc1ccccc1)C(=O)c1c[nH]c2c(C(=O)NCc3ccc4c(c3)NC(=O)CO4)ncnc12 [Example 46] | 3 to 100 | 101 to 20000 |
| CCCCN(CC)C(=O)c1c[nH]c2c(C(=O)NCc3ccc4c(c3)NC(=O)CO4)ncnc12 [Example 47] | 3 to 100 | – |
| CCCN(CCC)C(=O)c1c[nH]c2c(C(=O)NCc3ccc4c(c3)NC(=O)CO4)ncnc12 [Example 48] | 3 to 100 | – |
| CC(C)(C)OC(=O)N1CC2CC1CN2C(=O)c1c[nH]c2c(C(=O)NCc3ccc4c(c3)NC(=O)CO4)ncnc12 (stereo not shown) [Example 50] | 3 to 100 | 101 to 20000 |
| CC(C)(CO)NC(=O)c1c[nH]c2c(C(=O)NCc3ccc4c(c3)NC(=O)CO4)ncnc12 [Example 51] | 3 to 100 | 101 to 20000 |
| COC(=O)[C@@H]1C[C@@H](O)CN1C(=O)c1c[nH]c2c(C(=O)NCc3ccc4c(c3)NC(=O)CO4)ncnc12 [Example 52] | 3 to 100 | 101 to 20000 |
| C[C@@H](NC(=O)c1c[nH]c2c(C(=O)NCc3ccc4c(c3)NC(=O)CO4)ncnc12)c1ccccc1 [Example 60] | 101 to 20000 | – |
| C[C@H](NC(=O)c1c[nH]c2c(C(=O)NCc3ccc4c(c3)NC(=O)CO4)ncnc12)c1ccccc1 [Example 61] | 101 to 20000 | – |
| O=C1CN(C(=O)c2c[nH]c3c(C(=O)NCc4ccc5c(c4)NC(=O)CO5)ncnc23)CCN1 [Example 62] | 3 to 100 | 101 to 20000 |
| CCOC(=O)CC1C(=O)NCCN1C(=O)c1c[nH]c2c(C(=O)NCc3ccc4c(c3)NC(=O)CO4)ncnc12 (stereo not shown) [Example 63] | 101 to 20000 | – |
